This is an account of results in patent publication US8722720B2, “Imidazole derivatives as IDO inhibitors” (NewLink Genetics Corporation, priority 2010, dated 2014).

Read-outs that look alike come from different tables or passages of the source.

For this experiment, the target named is T1, purified human IDO protein (Homo sapiens, UniProt P14902).
T1 construct: 2 extra amino acids (linker from the BglII cloning site of pQE70); made in house; host or cells: E. coli M15(pREP4) with plasmid pQE70-hIDO
T1 sequence (P14902 whole entry P110S/E119G): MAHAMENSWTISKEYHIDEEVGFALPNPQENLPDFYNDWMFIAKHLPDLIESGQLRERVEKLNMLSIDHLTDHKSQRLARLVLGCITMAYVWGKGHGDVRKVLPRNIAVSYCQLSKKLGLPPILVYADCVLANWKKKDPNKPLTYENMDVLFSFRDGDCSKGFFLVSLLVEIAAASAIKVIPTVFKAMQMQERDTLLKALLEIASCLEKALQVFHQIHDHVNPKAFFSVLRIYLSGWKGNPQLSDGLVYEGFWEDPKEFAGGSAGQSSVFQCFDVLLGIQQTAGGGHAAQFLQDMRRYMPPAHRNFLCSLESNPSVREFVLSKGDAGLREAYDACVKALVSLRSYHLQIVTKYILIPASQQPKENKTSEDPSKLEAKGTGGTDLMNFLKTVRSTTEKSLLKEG
In words: Enzymatic IDO assay (kynurenine production, absorbance at 480 nm). The following applies: values reported in ranges. Format: biochemical. On the procedure: The inhibitors were initially diluted in DMSO at 100 mM and were diluted in potassium phosphate 50 mM, added to the reaction mixture at final concentrations raging from 1 mM to 5 nM and preincubated with the enzyme for 5 min at 25° C. The reaction was started by addition of L-tryptophan to 200 μM and incubated 15 min at 37° C. The reaction was stopped by addition of 0.5 vol of 30% trichloroacetic acid and incubated 30 min at 60° C. to hydrolyze N-formylkynurenine to kynurenine. The reaction was centrifuged at 3400 g for 5 min to remove precipitated protein and the supernatant was reacted with 2% (w/v) of p-dimethylaminobenzaldehyde in acetic acid. The reaction was incubated 10 min at 25° C. and read at 480 nm in a spectrophotometer. […] Nonlinear regressions and determination of the IC50 values were performed using the GraphPad Prism 4 software.

[1] abbreviates: recombinant human IDO, read-out: hIDO IC50.

Consider `O=C(Nc1ccc(CCOc2ccccc2-c2c[nH]cn2)cc1)Nc1ccccc1[N+](=O)[O-]` [compound 1192, 1-(4-(2-(2-(1H-imidazol-4-yl)phenoxy)ethyl)phenyl)-3-(2-nitrophenyl)urea], for which the IC50 under setting [1] was under 1 µM.
Same read-out and setting: next, `Oc1c(-c2cnc[nH]2)ccc(F)c1Cl` [compound 1129, 2-chloro-3-fluoro-6-(1H-imidazol-5-yl)phenol]: 10 to 100 µM; `C=CCn1cncc1-c1ccccc1` [compound 1131, 1-allyl-5-phenyl-1H-imidazole]: over 100 µM; `Nc1ccc(CCOc2ccccc2-c2c[nH]cn2)cc1` [compound 1078, 4-(2-(2-(1H-imidazol-4-yl)phenoxy)ethyl) aniline]: 1 to 10 µM.
Consider `Clc1ccc(OCc2ccccc2)c(-c2cncn2C2CCCCC2)c1` [compound 1060, 5-(2-(benzyloxy)-5-chlorophenyl)-1-cyclo-hexyl-1H-imidazole], for which the IC50 under setting [1] was over 100 µM.
Still for that read-out and setting: then `O=C(Nc1ccccc1)Nc1ccc(CCOc2ccccc2-c2cnc[nH]2)cc1` [compound 1152, 1-(4-(2-(2-(1H-imidazol-4-yl)phenoxy)ethyl)phenyl)-3-phenylurea], with under 1 µM.
Take `NC(CCc1ccccc1-c1c[nH]cn1)C(=O)O` (stereo not drawn) [compound 1050, lithium 4-(2-(1H-imidazol-4-yl)phenyl)-2-amino-butanoate]: under setting [1], the IC50 was over 100 µM.
Still for that read-out and setting: then `c1ccc2c(-c3c[nH]cn3)ccnc2c1` [compound 1007, 4-(1H-imidazol-4-yl)quinoline], with over 100 µM; and `O=C(Cc1ncccn1)Nc1ccc(CCOc2ccccc2-c2c[nH]cn2)cc1` [compound 1227, N-(4-(2-(2-(1H-imidazol-4-yl)phenoxy)ethyl)phenyl)-2-(pyrimidin-2-yl)acetamide], with 1 to 10 µM; and `Oc1ccccc1-c1cnco1` [compound 1139, 2-(oxazol-5-yl)phenol], with 10 to 100 µM.
Regarding `Oc1ccc(Cl)cc1-c1cnc2cnccn12` [compound 1038, 4-chloro-2-(imidazo[1,2-a]pyrazin-3-yl)phenol], the IC50 under setting [1] is over 100 µM.
Regarding `O=C(Nc1ccccc1)Nc1ccc(CCOc2ccccc2-c2c[nH]cn2)cn1` [compound 1224, 1-(5-(2-(2-(1H-imidazol-4-yl)phenoxy)ethyl)pyridin-2-yl)-3-phenylurea], the IC50 under setting [1] lay in the range of 1 to 10 µM.
The same measure, in the same setting: then `c1ccc(-c2c[nH]cn2)c(OCCc2ccsc2)c1` [compound 1203, 4-(2-(2-(thiophen-3-yl)ethoxy)phenyl)-1H-imidazole], with 10 to 100 µM; and `c1ccc2c(c1)NCn1cncc1-2` [compound 1114, 5,6-dihydroimidazo[1,5-c]quinazoline], with over 100 µM.
Still for that read-out and setting: next, `CC(C)N(C(=O)Oc1ccc(Cl)cc1-c1c[nH]cn1)C(C)C` [compound 1085, 4-chloro-2-(1H-imidazol-4-yl)phenyl diisopropylcarbamate]: over 100 µM.
Same read-out and setting: next, `Fc1cccc(-c2c[nH]cn2)c1OCCc1ccccc1Cl` [compound 1296, 4-(2-(2-chlorophenethoxy)-3-fluorophenyl)-1H-imidazole]: 10 to 100 µM; `CN1CCN(CC(=O)Nc2ccc(CCOc3ccccc3-c3c[nH]cn3)cc2)CC1` [compound 1212, N-(4-(2-(2-(1H-imidazol-4-yl)phenoxy)ethyl)phenyl)-2-(4-methylpiperazin-1-yl)acetamide]: 10 to 100 µM.
`Oc1cccc(OCCc2ccncc2)c1-c1cnc[nH]1` [compound 1238, 2-(1H-imidazol-5-yl)-3-(2-(pyridin-4-yl)ethoxy) phenol]: the IC50 under setting [1] lay in the range of 10 to 100 µM.
The same measure, in the same setting: next, `O=C(COc1ccccc1-c1c[nH]cn1)c1cccc(Br)c1` [compound 953, 2-(2-(1H-imidazol-4-yl)phenoxy)-1-(3-bromo-phenyl)ethanone]: 10 to 100 µM; `CC(COc1ccccc1-c1c[nH]cn1)c1coc2ccccc12` (stereo not drawn) [compound 1031, 4-(2-(2-(benzofuran-3-yl)propoxy)phenyl)-1H-imidazole]: 1 to 10 µM; `c1ccc(-c2c[nH]cn2)c(OCc2ccc3c(c2)OCO3)c1` [compound 1027, 4-(2-(benzo[d][1,3]dioxol-5-ylmethoxy)phen-yl)-1H-imidazole]: 10 to 100 µM.
Still for that read-out and setting: next, `O=C(Cc1ccccc1)N1CCC(CCOc2ccccc2-c2c[nH]cn2)CC1` [compound 1186, 1-(4-(2-(2-(1H-imidazol-4-yl)phenoxy)ethyl)piperidin-1-yl)-2-phenylethanone]: 1 to 10 µM; `CC1Cn2cncc2-c2ccccc21` (stereo not drawn) [compound 1137, 6-methyl-5,6-dihydroimidazo[5,1-a]isoquino-line]: over 100 µM; `Clc1ccc(COc2ccccc2-c2c[nH]cn2)cc1Cl` [compound 1003, 4-(2-(3,4-dichlorobenzyloxy)phenyl)-1H-imidazole]: 1 to 10 µM.
On the same count and under the same terms, then `Oc1cccc(OCCc2ccc(Cl)cc2)c1-c1cnc[nH]1` [compound 1148, 3-(4-chlorophenethoxy)-2-(1H-imidazol-5-yl) phenol], with 1 to 10 µM.
Turning to `Ic1ccccc1-c1cnc[nH]1` [compound 1119, 5-(2-iodophenyl)-1H-imidazole], the IC50 under setting [1] fell in the range of 10 to 100 µM.
Still for that read-out and setting: next, `Nc1cccc(CC(=O)Nc2ccc(CCOc3ccccc3-c3c[nH]cn3)cc2)c1` [compound 1244, N-(4-(2-(2-(1H-imidazol-4-yl)phenoxy)ethyl)phenyl)-2-(3-aminophenyl)acetamide]: 1 to 10 µM.
On the same count and under the same terms, next, `N[C@H]1CCCC[C@H]1NC(=O)Nc1ccc(CCOc2ccccc2-c2c[nH]cn2)c(Cl)c1` (racemic) [compound 1368, 1-(4-(2-(2-(1H-imidazol-4-yl)phenoxy)ethyl)-3-chlorophenyl)-3-(±(1R,2S)-2-aminocyclohexyl)urea]: under 1 µM; `NC(C(=O)Nc1ccc(CCOc2ccccc2-c2c[nH]cn2)c(Cl)c1)C1CCOCC1` (stereo not drawn) [compound 1333, N-(4-(2-(2-(1H-imidazol-4-yl)phenoxy)ethyl)-3-chlorophenyl)-2-amino-2-(tetrahydro-2H-pyran-4-yl)acetamide]: under 1 µM; `O=C(O)c1cccc(C(=O)Nc2ccc(CCOc3ccccc3-c3c[nH]cn3)cc2)c1` [compound 1276, 3-((4-(2-(2-(1H-imidazol-4-yl)phenoxy)ethyl)phenyl)carbamoyl)benzoic acid]: 1 to 10 µM.
Same read-out and setting: then `CC(C)(C)CCOc1ccc(O)cc1-c1c[nH]cn1` [compound 1110, 4-(3,3-dimethylbutoxy)-3-(1H-imidazol-4-yl) phenol], with 10 to 100 µM.
For `CCOC(=O)Oc1ccc(Br)cc1-c1cn(C(=O)OCC)cn1` [compound 1036, ethyl 4-(5-bromo-2-(ethoxycarbonyloxy)phenyl)-1H-imidazole-1-carboxylate], the IC50 under setting [1] is 10 to 100 µM.
As to `CN1CCN(C(=O)Oc2ccc(Cl)cc2-c2c[nH]cn2)CC1` [compound 1112, 4-chloro-2-(1H-imidazol-4-yl)phenyl 4-methylpiperazine-1-carboxylate], the IC50 (hIDO IC50, recombinant human IDO) was in the range of 10 to 100 µM.
Regarding `c1cnc(-c2c[nH]cn2)nc1` [compound 972, 2-(1H-imidazol-4-yl)pyrimidine], the IC50 under setting [1] is over 100 µM.
On the same count and under the same terms, then `O=C(Nc1cccc(OC2CCOC2)c1)Nc1ccc(CCOc2ccccc2-c2c[nH]cn2)c(Cl)c1` (stereo not drawn) [compound 1346, 1-(4-(2-(2-(1H-imidazol-4-yl)phenoxy)ethyl)-3-chlorophenyl)-3-(3-(tetrahydrofuran-3-yloxy)phenyl)urea], with 1 to 10 µM; and `CC(COc1ccccc1-c1c[nH]cn1)c1ccccc1` (stereo not drawn) [compound 978, 4-(2-(2-phenylpropoxy)phenyl)-1H-imidazole], with 10 to 100 µM; and `O=C1CCCCN1c1ccc(CCOc2ccccc2-c2c[nH]cn2)cc1` [compound 1230, 1-(4-(2-(2-(1H-imidazol-4-yl)phenoxy)ethyl)phenyl)piperidin-2-one], with 10 to 100 µM.
Still for that read-out and setting: next, `O=C(Nc1ccc(CCOc2ccccc2-c2c[nH]cn2)cc1)c1ccc[nH]c1=O` [compound 1204, N-(4-(2-(2-(1H-imidazol-4-yl)phenoxy)ethyl)phenyl)-2-oxo-1,2-dihydropyridine-3-carboxamide]: 1 to 10 µM.
The same measure, in the same setting: next, `O=C(CC1CCOCC1)Nc1ccc(Cl)c(CCOc2ccccc2-c2c[nH]cn2)c1` [compound 1298, N-(3-(2-(2-(1H-imidazol-4-yl)phenoxy)ethyl)-4-chlorophenyl)-2-(tetrahydro-2H-pyran-4-yl)acetamide]: 10 to 100 µM; `C1=CCC(CCOc2ccccc2-c2c[nH]cn2)CC1` (stereo not drawn) [compound 1191, 4-(2-(2-(cyclohex-3-en-1-yl)ethoxy)phenyl)-1H-imidazole]: 1 to 10 µM.
On to `Oc1cc(F)ccc1-c1cnc[nH]1` [compound 1120, 5-fluoro-2-(1H-imidazol-5-yl)phenol], for which the IC50 under setting [1] was in the range of 10 to 100 µM.
Same read-out and setting: then `CC(COc1ccccc1-c1c[nH]cn1)c1ccccc1Cl` (stereo not drawn) [compound 1109, 4-(2-(2-(2-chlorophenyl)propoxy)phenyl)-1H-imidazole], with 10 to 100 µM.
With `Oc1cccc(-c2c[nH]cn2)n1` [compound 1011, 6-(1H-imidazol-4-yl)pyridin-2-ol], under setting [1], the IC50 is over 100 µM.
The same measure, in the same setting: next, `CC(C)(C)COC(=O)N1CCC(CCOc2ccccc2-c2c[nH]cn2)CC1` [compound 1149, neopentyl 4-(2-(2-(1H-imidazol-4-yl)phenoxy)ethyl)piperidine-1-carboxylate]: 10 to 100 µM; `Fc1ccc(-c2cnc[nH]2)cc1Cl` [compound 1037, 5-(3-chloro-4-fluorophenyl)-1H-imidazole]: 10 to 100 µM.

Usually IC50 stands for the concentration at which inhibition is half-maximal.
